Consider 1 sequence from patent US9695217B2, “Peptide domains that bind small molecules” (Iowa State University Research Foundation, Inc., priority 2010, dated 2017).

The conditions of experiment [1]: known polyhistidine binding domain, background statement; read-out: molar dissociation constant for nickel; cited from earlier work.
The nature of experiment [2]: Binding strength measured by surface plasmon resonance (BIACOR 3000, Sensor Chip NTA). Conditions: read-out: Kd (dissociation constant for nickel), SPR. For orientation: In SPR one partner is held on a chip, and binding of the other changes the refractive index at the surface.

Like-named read-outs stand apart in the source and are kept apart here.

On to YSHHHHHHLAGTA [C26], for which the Kd in experiment [1] was 0.023 nM; in experiment [2] it was ~0.023 nM.
